Data: ChEMBL document CHEMBL1201862, “PubChem BioAssay data set” (2004)
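In this assay, cells in 96-well plates receive the compound at five concentrations for 48 hours. Endpoints are linearly interpolated between the surrounding concentrations. GI50 is the concentration that inhibits growth by half.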 Activity calls are given as the source filed them. Rule as the data show it: active = GI50 up to about 1.1 µM and inactive = higher.

Assays:
Assay in all cases: inhibition of tumour cell growth, NCI panel, 48 h
SF-268 = test system: SF-268
U-251 = test system: U-251
SK-MEL-28 = test system: SK-MEL-28
NCI-H23 = test system: NCI-H23
SK-MEL-5 = test system: SK-MEL-5
M14 = test system: M14
OVCAR-3 = test system: OVCAR-3
HOP-18 = test system: HOP-18
M19-MEL = test system: M19-MEL
NCI-H226 = test system: NCI-H226
KM12 = test system: KM12
ACHN = test system: ACHN
MOLT-4 = test system: MOLT-4
786-0 = test system: 786-0
IGROV-1 = test system: IGROV-1
OVCAR-8 = test system: OVCAR-8
DLD-1 = test system: DLD-1
NCI-H460 = test system: NCI-H460
HOP-92 = test system: HOP-92
XF498 = test system: XF498
K562 = test system: K562
SR = test system: SR
SK-OV-3 = test system: SK-OV-3
HCC 2998 = test system: HCC 2998
RXF 393 = test system: RXF 393
NCI-H522 = test system: NCI-H522
HL-60 = test system: HL-60
SW-620 = test system: SW-620
OVCAR-5 = test system: OVCAR-5
SNB-19 = test system: SNB-19
HCT-15 = test system: HCT-15
SK-MEL-2 = test system: SK-MEL-2
UO-31 = test system: UO-31
COLO 205 = test system: COLO 205
EKVX = test system: EKVX
DMS-273 = test system: DMS-273
KM-20L2 = test system: KM-20L2
Malme-3M = test system: Malme-3M
SN12C = test system: SN12C
UACC-257 = test system: UACC-257
SF-295 = test system: SF-295
HT-29 = test system: HT-29
LXFL 529 = test system: LXFL 529
CCRF-CEM = test system: CCRF-CEM
TK-10 = test system: TK-10
RPMI-8226 = test system: RPMI-8226
HOP-62 = test system: HOP-62
SNB-78 = test system: SNB-78
UACC-62 = test system: UACC-62
DMS-114 = test system: DMS-114
OVCAR-4 = test system: OVCAR-4
HCT-116 = test system: HCT-116
LOX IMVI = test system: LOX IMVI
SNB-75 = test system: SNB-75
A549 = test system: A549

## O=C(O)Cc1cc(=O)[nH]c2c1C(=O)CCC2
SF-268
  GI50: > 100 µM (inactive)
U-251
  GI50: > 100 µM (inactive)
SK-MEL-28
  GI50: > 100 µM (inactive)
NCI-H23
  GI50: > 100 µM (inactive)
SK-MEL-5
  GI50: > 100 µM (inactive)
M14
  GI50: > 100 µM (inactive)
OVCAR-3
  GI50: > 100 µM (inactive)
HOP-18
  GI50: > 100 µM (inactive)
M19-MEL
  GI50: > 100 µM (inactive)
NCI-H226
  GI50: > 100 µM (inactive)
KM12
  GI50: > 100 µM (inactive)
ACHN
  GI50: > 100 µM (inactive)
MOLT-4
  GI50: > 100 µM (inactive)
786-0
  GI50: > 100 µM (inactive)
IGROV-1
  GI50: > 100 µM (inactive)
OVCAR-8
  GI50: > 100 µM (inactive)
DLD-1
  GI50: > 100 µM (inactive)
NCI-H460
  GI50: > 100 µM (inactive)
HOP-92
  GI50: > 100 µM (inactive)
XF498
  GI50: > 100 µM (inactive)
K562
  GI50: > 100 µM (inactive)
SR
  GI50: > 100 µM (inactive)
SK-OV-3
  GI50: > 100 µM (inactive)
HCC 2998
  GI50: > 100 µM (inactive)
RXF 393
  GI50: > 100 µM (inactive)
NCI-H522
  GI50: > 100 µM (inactive)
HL-60
  GI50: > 100 µM (inactive)
SW-620
  GI50: > 100 µM (inactive)
OVCAR-5
  GI50: > 100 µM (inactive)
SNB-19
  GI50: > 100 µM (inactive)
HCT-15
  GI50: > 100 µM
SK-MEL-2
  GI50: > 100 µM (inactive)
UO-31
  GI50: > 100 µM (inactive)
COLO 205
  GI50: > 100 µM (inactive)
EKVX
  GI50: > 100 µM (inactive)
DMS-273
  GI50: > 100 µM (inactive)
KM-20L2
  GI50: > 100 µM (inactive)
Malme-3M
  GI50: > 100 µM (inactive)
SN12C
  GI50: > 100 µM (inactive)
UACC-257
  GI50: > 100 µM (inactive)
SF-295
  GI50: > 100 µM (inactive)
HT-29
  GI50: > 100 µM (inactive)
LXFL 529
  GI50: > 100 µM (inactive)
CCRF-CEM
  GI50: > 100 µM (inactive)
TK-10
  GI50: > 100 µM (inactive)
RPMI-8226
  GI50: > 100 µM (inactive)

## CC(=O)O[C@]12CCCCCCC1C1(O)C(O)CCC[C@H]12 (stereo not given in full)
SF-268
  GI50: > 100 µM (inactive)
HOP-62
  GI50: > 100 µM (inactive)
U-251
  GI50: > 100 µM (inactive)
SK-MEL-28
  GI50: > 100 µM (inactive)
NCI-H23
  GI50: > 100 µM (inactive)
SK-MEL-5
  GI50: > 100 µM (inactive)
SNB-78
  GI50: > 100 µM (inactive)
M14
  GI50: > 100 µM (inactive)
HOP-18
  GI50: > 100 µM (inactive)
M19-MEL
  GI50: > 100 µM (inactive)
NCI-H226
  GI50: > 100 µM (inactive)
KM12
  GI50: > 100 µM (inactive)
ACHN
  GI50: > 100 µM (inactive)
MOLT-4
  GI50: > 100 µM (inactive)
786-0
  GI50: > 100 µM (inactive)
OVCAR-8
  GI50: > 100 µM (inactive)
NCI-H460
  GI50: > 100 µM (inactive)
UACC-62
  GI50: > 100 µM (inactive)
XF498
  GI50: > 100 µM (inactive)
DMS-114
  GI50: > 100 µM (inactive)
K562
  GI50: > 100 µM (inactive)
OVCAR-4
  GI50: > 100 µM (inactive)
SR
  GI50: > 100 µM (inactive)
SK-OV-3
  GI50: > 100 µM (inactive)
RXF 393
  GI50: > 100 µM (inactive)
NCI-H522
  GI50: > 100 µM (inactive)
HL-60
  GI50: > 10 µM (inactive)
HCT-116
  GI50: > 100 µM (inactive)
SW-620
  GI50: > 100 µM (inactive)
SNB-19
  GI50: > 100 µM (inactive)
HCT-15
  GI50: > 100 µM
SK-MEL-2
  GI50: > 100 µM (inactive)
UO-31
  GI50: > 100 µM (inactive)
COLO 205
  GI50: > 100 µM (inactive)
LOX IMVI
  GI50: > 100 µM (inactive)
EKVX
  GI50: > 100 µM (inactive)
DMS-273
  GI50: > 100 µM (inactive)
KM-20L2
  GI50: > 100 µM (inactive)
Malme-3M
  GI50: > 100 µM (inactive)
SN12C
  GI50: > 100 µM (inactive)
UACC-257
  GI50: > 100 µM (inactive)
SNB-75
  GI50: > 100 µM (inactive)
SF-295
  GI50: > 100 µM (inactive)
HT-29
  GI50: > 100 µM (inactive)
LXFL 529
  GI50: > 100 µM (inactive)
CCRF-CEM
  GI50: > 100 µM (inactive)
A549
  GI50: > 100 µM (inactive)
TK-10
  GI50: > 100 µM (inactive)
RPMI-8226
  GI50: > 100 µM (inactive)
